Measured values reported in the NIST ThermoML archive (doi:10.1021/je025657+).
Where “and” joins values, the source holds several entries; their conditions need not be identical. Identical values can stand only once. Numbers after ± are expanded uncertainties.

Conditions: for vapor or sublimation pressure: Closed cell (Static) method

SMILES: COC(F)(F)F [trifluoromethoxymethane]
- mass density (290 K, 4029.3 kPa, Liquid): 1136.09 ± 0.84 kg/m3
- mass density (290 K, 4505 kPa, Liquid): 1138.14 ± 0.87 kg/m3
- mass density (290 K, 4999.6 kPa, Liquid): 1140.25 ± 0.9 kg/m3
- mass density (290 K, 5546.1 kPa, Liquid): 1142.55 ± 0.93 kg/m3
- mass density (290 K, 6046.4 kPa, Liquid): 1144.61 ± 0.97 kg/m3
- mass density (290 K, 6496.3 kPa, Liquid): 1146.42 ± 1 kg/m3
- mass density (290 K, 6981.5 kPa, Liquid): 1148.28 ± 1 kg/m3
- mass density (290 K, Liquid): 1119.31 ± 2.5 kg/m3
- mass density (300 K, 31.3 kPa, Gas): 1.25 ± 0.25 kg/m3
- mass density (300 K, 46.2 kPa, Gas): 1.89 ± 0.26 kg/m3
- mass density (300 K, 68 kPa, Gas): 2.77 ± 0.26 kg/m3
- mass density (300 K, 100.1 kPa, Gas): 4.12 ± 0.26 kg/m3
- mass density (300 K, 124.2 kPa, Gas, Burnett expansion method): 5.136 ± 0.11 kg/m3
- mass density (300 K, 146.6 kPa, Gas): 6.12 ± 0.27 kg/m3
- mass density (300 K, 170.5 kPa, Gas, Burnett expansion method): 7.128 ± 0.11 kg/m3
- mass density (300 K, 183.4 kPa, Gas, Burnett expansion method): 7.703 ± 0.11 kg/m3
- mass density (300 K, 214 kPa, Gas): 9.08 ± 0.28 kg/m3
- mass density (300 K, 251.4 kPa, Gas, Burnett expansion method): 10.75 ± 0.11 kg/m3
- mass density (300 K, 268.7 kPa, Gas, Burnett expansion method): 11.56 ± 0.11 kg/m3
- mass density (300 K, 306.3 kPa, Gas): 13.34 ± 0.29 kg/m3
- mass density (300 K, 364.7 kPa, Gas, Burnett expansion method): 16.13 ± 0.11 kg/m3
- mass density (300 K, 388.1 kPa, Gas, Burnett expansion method): 17.29 ± 0.11 kg/m3
- mass density (300 K, 439.5 kPa, Gas): 19.94 ± 0.32 kg/m3
- mass density (300 K, 519.4 kPa, Gas, Burnett expansion method): 24.16 ± 0.11 kg/m3
- mass density (300 K, 550.3 kPa, Gas, Burnett expansion method): 25.89 ± 0.11 kg/m3
- mass density (300 K, 589.3 kPa, Gas): 28.11 ± 0.34 kg/m3
- mass density (300 K, 617 kPa, Liquid): 1086.54 ± 0.55 kg/m3
- mass density (300 K, 658.2 kPa, Liquid): 1086.45 ± 0.55 kg/m3
- mass density (300 K, 913.6 kPa, Liquid): 1088.34 ± 0.56 kg/m3
- mass density (300 K, 1058.4 kPa, Liquid): 1088.91 ± 0.57 kg/m3
- mass density (300 K, 1466.6 kPa, Liquid): 1091.63 ± 0.59 kg/m3
- mass density (300 K, 1522.9 kPa, Liquid): 1091.63 ± 0.59 kg/m3
- mass density (300 K, 1998.6 kPa, Liquid): 1094.68 ± 0.61 kg/m3
- mass density (300 K, 2016.1 kPa, Liquid): 1094.48 ± 0.61 kg/m3
- mass density (300 K, 2526.4 kPa, Liquid): 1097.64 ± 0.63 kg/m3
- mass density (300 K, 2545.5 kPa, Liquid): 1097.41 ± 0.63 kg/m3
- mass density (300 K, 3023.5 kPa, Liquid): 1100.35 ± 0.65 kg/m3
- mass density (300 K, 3063.2 kPa, Liquid): 1100.24 ± 0.65 kg/m3
- mass density (300 K, 3486.7 kPa, Liquid): 1102.83 ± 0.68 kg/m3
- mass density (300 K, 3535.6 kPa, Liquid): 1102.72 ± 0.68 kg/m3
- mass density (300 K, 4015.2 kPa, Liquid): 1105.57 ± 0.71 kg/m3
- mass density (300 K, 4063.9 kPa, Liquid): 1105.45 ± 0.71 kg/m3
- mass density (300 K, 4499.8 kPa, Liquid): 1108.05 ± 0.73 kg/m3
- mass density (300 K, 4569.3 kPa, Liquid): 1107.99 ± 0.74 kg/m3
- mass density (300 K, 5014.6 kPa, Liquid): 1110.58 ± 0.76 kg/m3
- mass density (300 K, 5140.6 kPa, Liquid): 1110.81 ± 0.77 kg/m3
- mass density (300 K, 5517 kPa, Liquid): 1113.05 ± 0.79 kg/m3
- mass density (300 K, 5669.7 kPa, Liquid): 1113.35 ± 0.8 kg/m3
- mass density (300 K, 6023 kPa, Liquid): 1115.44 ± 0.82 kg/m3
- mass density (300 K, 6155.2 kPa, Liquid): 1115.66 ± 0.83 kg/m3
- mass density (300 K, 6499 kPa, Liquid): 1117.65 ± 0.85 kg/m3
- mass density (300 K, 6683.2 kPa, Liquid): 1118.07 ± 0.86 kg/m3
- mass density (300 K, 6960.3 kPa, Liquid): 1119.71 ± 0.88 kg/m3
- mass density (300 K, 7091.7 kPa, Liquid): 1119.94 ± 0.88 kg/m3
- mass density (300 K, Liquid): 1086.15 ± 2.1 kg/m3 and 1086.47 ± 2.1 kg/m3 and 1086.56 ± 2.1 kg/m3
- vapor or sublimation pressure (300 K, Liquid): 607.7 ± 1.2 kPa and 607.3 ± 1.2 kPa
- vapor or sublimation pressure (305 K, Liquid): 698.7 ± 1.3 kPa
- mass density (310 K, 38.3 kPa, Gas): 1.49 ± 0.25 kg/m3
- mass density (310 K, 56.5 kPa, Gas): 2.22 ± 0.26 kg/m3
